Test results taken from article PMC7469199, “Immunosuppressive Activities of Novel PLA2 Inhibitors from Xenorhabdus hominickii, an Entomopathogenic Bacterium” (Insects, 2020).
Read-outs that look alike come from different tables or passages of the source.

Legend:
[1] = target: mushroom tyrosinase; design: method as in PMID 14714727; conditions: cited from earlier work
[2] = test system: hemocyte PLA2 of S. exigua; test: Nonspecific (total) hemocyte PLA2 activity, pyrene-labeled phospholipid fluorometric assay; assay type: biochemical, Spodoptera exigua; conditions: for Median Inhibitory Concentrations (IC50), Total PLA2: hemocyte extract of S. exigua L5 larvae, synthetic compounds
Description: Hemocyte PLA2 activity was fluorometrically determined with a pyrene-labeled phospholipid substrate using a spectrofluorometer (VICTOR multi-label plate reader, PerkinElmer, Waltham, MA, USA) at excitation and emission wavelengths of 345 and 398 nm, respectively. For measuring PLA2 activity, hemolymph was collected from ~10 L5 larvae. Hemocytes and plasma were separated by centrifugation at 800× g for 3 min at 4 °C. Hemocytes were then homogenized in 500 µL of PBS with a polytron (Ultra-Turrax T8, Ika Laboratory, Funkentshort, Germany). After centrifugation at 14,000× g for 5 min at 4 °C, protein concentration of the supernatant was determined by Bradford assay using bovine serum albumin (BSA) as the standard. The reaction mixture was prepared in a 96-well microplate by adding 129 μL of 50 mM Tris buffer (pH 7.0), 2 μL of 1 M CaCl2, and 2 μL of 10% BSA into each well. A sample solution consisted of 5 μL of test bacterial metabolites and 10 μL of hemocyte enzyme extract ([…]). The plate was then incubated at room temperature for 30 min. Enzyme reaction was then initiated by adding pyrene-labeled PL substrate (2 μL) to the reaction mixture.

[3] = test system: secretory PLA2 (sPLA2); test: Secretory PLA2 (sPLA2) activity; assay type: biochemical, Spodoptera exigua; conditions: for Median Inhibitory Concentrations (IC50), sPLA2: S. exigua, synthetic compounds
Description: (§1) To characterize PLA2 inhibition by test chemicals, activities of two different PLA2s [secretory PLA2 (sPLA2) and cytosolic PLA2 (cPLA2)] were assessed with methods described by Vatanparast et al..

[4] = test system: cytosolic PLA2 (cPLA2); test: Cytosolic PLA2 (cPLA2) activity; assay type: biochemical, Spodoptera exigua; conditions: for Median Inhibitory Concentrations (IC50), cPLA2: S. exigua, synthetic compounds
Description: as §1

[5] = test system: hemocyte phagocytosis of S. exigua; test: Phagocytosis assay with FITC-labeled E. coli in L5 larvae; assay type: in vivo, Spodoptera exigua; conditions: for Median Inhibitory Concentration (IC50), Phagocytosis: injected into L5 larvae with FITC-labeled E. coli
Description: For in vivo phagocytosis assay, test chemical (1 µL) and FITC-labeled E. coli (5 µL, 5 × 10^4 cells/µL) were injected to L5 larva. Hemolymph (50 µL) was collected at 15 min after injection and mixed with 50 µL of ice cold ACB. After centrifugation at 700 × g for 3 min at 4 °C, the supernatant plasma was replaced with 100 µL of TC-100 insect cell culture medium (Welgene, Daegu, Korea). Hemocyte suspension (10 µL) was placed onto a slide and over laid with 10 µL glycerol (50%, v/v). Hemocytes undergoing phagocytosis were determined by fluorescence-emitting cells under a fluorescence microscope (Leica, Wetzlar, Germany) at 40× magnification. For in vitro phagocytosis, hemocyte suspension and labeled bacteria mixture (30 µL) were incubated in a dark place for 1 h at room temperature. Hemocytes were then washed three times with PBS by centrifugation at 700× g for 2 min at 4 °C and finally resuspended in TC-100 medium. This hemocyte suspension was observed under the fluorescence microscope in FITC or DIC mode after forming monolayers on glass slides.

[6] = test system: hemocyte nodule formation; test: Nodulation assay after E. coli injection in L5 larvae; assay type: in vivo, Spodoptera exigua; conditions: for Median Inhibitory Concentration (IC50), Nodulation: injected into L5 larvae with E. coli, nodules counted after 8 h
Description: To assess nodule formation, immune challenge was performed by injecting 3 µL of Escherichia coli Top10 (10^4 cells/larva) (Invitrogen, Madison, WI, USA) through the abdominal proleg of L5 larvae using a microsyringe (Hamilton, Reno, NV, USA). After incubating at 25 °C for 8 h, test insects were dissected to count the number of melanized nodules under a stereo microscope (Stemi SV11, Zeiss, Jena, Germany) at 50× magnification. For chemical test, 1 µL aliquot of test chemical at different concentrations was injected into each larva along with E. coli. AA was injected at 10 μg per larva. Each treatment was independently replicated five times.

[7] = test system: Sf9 cells; test: Cytotoxicity test (MTT); assay type: cell-based; conditions: for Cytotoxicity (MIC, minimum inhibitory concentration): MTT, 24 h at 28 °C
Description: Cytotoxicity of each secondary metabolite was evaluated by 3-(4,5 dimethylthiazol-2-yl)-2,5-diphenyl tetrazolium bromide (MTT) assay according to the method described by Mollah et al.. with a slight modification. Briefly, Sf9 cells (1.2 × 10^4 cells in 200 μL of TC-100 medium) were seeded into each 96-well. After adding each test chemical (2.5 μL in DMSO), the plate was incubated at 28 °C for 24 h. Control cells were treated with 2.5 μL of DMSO. After 24 h incubation, 10 μL of MTT (5 mg/mL in PBS) was added to each well and cells were cultured for another 4 h at 28 °C. Formazan granules formed in viable cells were dissolved in 50 μL of DMSO. Absorbance was then measured at 540 nm using a microplate reader (Victor Multilabel Plate Reader, PerkinElmer, Waltham, MA, USA).

[8] = test system: S. exigua larvae; test: Insecticidal activity by injection; assay type: in vivo, Spodoptera exigua; conditions: for Insecticidal Activities, Injection: median lethal dose by Probit analysis, S. exigua larvae
Description: All data for continuous variables were subjected to one-way analysis of variance (ANOVA) using PROG GLM in SAS program. Mortality data were subjected to arcsine transformation and used for ANOVA. Means were compared with the least significant difference (LSD) test at Type I error of 0.05. Median toxicity values such as median lethal dose (LD50), median lethal concentration (LC50), median lethal time (LT50), and median inhibition concentrations (IC50) were calculated by Probit analysis using EPA Probit Analysis Program, ver. 1.5 (U.S. Environmental Protection Agency, Washington, DC, USA). […]

[9] = test system: S. exigua larvae; test: Feeding toxicity, leaf-dipping method; assay type: in vivo, Spodoptera exigua; conditions: for Insecticidal Activities, Feeding: median lethal concentration by Probit analysis, leaf-dipping
Description: (§2) For the virulence test of X. hominickii, 24 h-cultured cells (10^8 cfu/mL) were diluted with sterile PBS. After surface sterilization with 95% ethanol, each L5 larva was injected with 1 µL of test compound (1 µg/larva) along with bacterial suspension (10^2 cfu/larva). Injection was performed through the first abdominal proleg using a micro syringe. Injected larvae were incubated at room temperature individually in 9 cm Petri dishes. For oral toxicity assay of B. thuringiensis, a small piece (2 × 2 cm) of Chinese cabbage was dipped in 500 ppm of Bt or a mixture of Bt (500 ppm) with 500 ppm of test chemical for 5 min. After a brief (5 min) drying under a dark condition, the treated leaf was supplied to individual test larva in 9 cm Petri dish for 24 h at room temperature. After 24 h, larvae were fed with fresh cabbage leaves. Each treatment was replicated three times with 10 larvae per replication. […] Larvae were considered dead if they were unable to move in a coordinated manner when prodded with a blunt probe.
All data for continuous variables were subjected to one-way analysis of variance (ANOVA) using PROG GLM in SAS program. Mortality data were subjected to arcsine transformation and used for ANOVA. Means were compared with the least significant difference (LSD) test at Type I error of 0.05. Median toxicity values such as median lethal dose (LD50), median lethal concentration (LC50), median lethal time (LT50), and median inhibition concentrations (IC50) were calculated by Probit analysis using EPA Probit Analysis Program, ver. 1.5 (U.S. Environmental Protection Agency, Washington, DC, USA).
These compounds were also tested for their feeding toxicities using a leaf-dipping method.

[10] = test system: rats; conditions: cited from earlier work
[11] = test system: rabbits; conditions: cited from earlier work
[12] = test system: S. exigua larvae; test: Effect on pathogenicity of X. hominickii (co-injection); assay type: in vivo, Spodoptera exigua; conditions: L5 larvae injected with Xh 10^2 cfu/larva along with inhibitor (5 µg/larva Fig. 7A; 2 µg/larva Fig. S6); 4 days after treatment
Description: as §2, with “After surface sterilization with 95% ethanol, each L5 larva was injected with 1 µL of test compound (1 µg/larva) along with bacterial suspension (10^2 cfu/larva).” left out

[13] = test system: S. exigua larvae; test: Effect on pathogenicity of Bacillus thuringiensis (oral, leaf dipping); assay type: in vivo, Spodoptera exigua; conditions: cabbage leaf dipped in Bt 500 ppm mixed with inhibitor 500 ppm; 4 days after treatment
Description: as §2

[14] = test system: mammals; conditions: oral administration; cited from earlier work
[15] = reference not printed with the value, next sentence cites ref 48

## N#Cc1ccc(C(=O)O)cc1 [4-cyanobenzoic acid]
[1]; diphenolase activity of mushroom tyrosinase, read-out: IC50 for diphenolase
  IC50: 1400 µM
[1]; monophenolase activity of mushroom tyrosinase, read-out: IC50 for monophenolase
  IC50: 2450 µM

## CCCCC(CC)COC(=O)c1ccccc1C(=O)OCC(CC)CCCC (centres unmarked) [BEP, bis(2-ethylhexyl) phthalate]
[2]
  Median Inhibitory Concentrations (IC50), Total PLA2: 0.17 ± 0.01 cd ^2 µg/mL
[3]
  Median Inhibitory Concentrations (IC50), sPLA2: 0.07 ± 0.01 ef µg/mL
[3]; based on IC50 values
  Potency for inhibiting sPLA2 (in words): highly potent
[4]
  Median Inhibitory Concentrations (IC50), cPLA2: 0.09 ± 0.01 µg·days/mL
[5]
  Median Inhibitory Concentration (IC50), Phagocytosis: 1.50 ± 0.22 d ^2 ng/larva
[6]
  Median Inhibitory Concentration (IC50), Nodulation: 1.0 ± 0.11 c ng/larva
[7]
  Cytotoxicity (MIC, minimum inhibitory concentration): 0.30 ± 0.01 d ^3 µg/mL
[8]
  Insecticidal Activities, Injection: 34.88 ± 2.08 bc µg/larva
[9]
  Insecticidal Activities, Feeding: 2679.58 ± 60.58 µg·days/mL
[10]; oral administration
  Acute toxicity, oral: 30 g/kg
[11]; dermal application
  Acute toxicity, dermal: 24 g/kg

## CCCCNCCCC [DBA, dibutylamine]
[2]
  Median Inhibitory Concentrations (IC50), Total PLA2: 0.18 ± 0.02 c µg/mL
[3]
  Median Inhibitory Concentrations (IC50), sPLA2: 0.11 ± 0.02 de µg/mL
[4]
  Median Inhibitory Concentrations (IC50), cPLA2: 0.19 ± 0.02 c µg/mL
[5]
  Median Inhibitory Concentration (IC50), Phagocytosis: 5.0 ± 0.58 c ng/larva
[6]
  Median Inhibitory Concentration (IC50), Nodulation: 0.71 ± 0.05 d ng/larva
[7]
  Cytotoxicity (MIC, minimum inhibitory concentration): 0.80 ± 0.03 b µg/mL
[8]
  Insecticidal Activities, Injection: 38.77 ± 3.26 b µg/larva
[9]
  Insecticidal Activities, Feeding: 2969.46 ± 50.56 c µg/mL
[10]; [15]
  Acute oral toxicity (LD50): 1890 mg/kg
[11]; [15]
  Acute dermal toxicity (LD50): 7680 mg/kg

## O=C1NC(=O)c2ccccc21 [PM, phthalimide]
[2]; S. exigua hemocyte PLA2, extracts, fractions or synthetic compounds
  Inhibitory activity against hemocyte PLA2 (in words): most potent
[2]
  Median Inhibitory Concentrations (IC50), Total PLA2: 0.05 ± 0.007 e µg/mL
[3]
  Median Inhibitory Concentrations (IC50), sPLA2: 0.17 ± 0.01 µg·days/mL
[4]
  Median Inhibitory Concentrations (IC50), cPLA2: 0.04 ± 0.003 f µg/mL
[4]; based on IC50 values
  Potency for inhibiting cPLA2 (in words): highly potent
[5]; S. exigua hemocytes
  Inhibition of phagocytosis (in words): highly potent
[5]
  Median Inhibitory Concentration (IC50), Phagocytosis: 0.40 ± 0.05f ng/larva
[6]; S. exigua L5 larvae, E. coli challenge
  Inhibition of nodule formation (in words): high potency
[6]
  Median Inhibitory Concentration (IC50), Nodulation: 0.20 ± 0.02 f ng/larva
[7]
  Concentration inducing cytotoxicity: less than 1 µg/mL
  Cytotoxicity (MIC, minimum inhibitory concentration): 0.1 ± 0.01 f µg/mL
[8]; individually injected to S. exigua larvae
  Killing of larvae after injection (in words): most potent
[8]
  Insecticidal Activities, Injection: 22.11 ± 2.69 d µg/larva
[9]; leaf-dipping method
  Feeding (oral) toxicity (in words): most potent
[9]
  Insecticidal Activities, Feeding: 2150.66 ± 50.07 f µg/mL
[12]
  Effect on X. hominickii pathogenicity / insecticidal activity: significantly (p < 0.05) increased
[13]
  Effect on B. thuringiensis insecticidal activity: significantly (p < 0.05) increased
[14]
  Acute mammalian toxicity LD50: > 5000 mg/kg
